# In ChEMBL document CHEMBL1201862, “PubChem BioAssay data set” (2004):
# Where “and” joins values, the source holds several entries; their conditions need not be identical. Equal values may be shown once.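 Step 1: Grow cells in 96-well plates. Step 2: Expose to compound for 48 hours at 5 concentrations. Step 3: Interpolate endpoints linearly; if unreached, use highest concentration. At the GI50, growth is halved.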 Calls of active or inactive are those of the source. Rule as the data show it: active = GI50 up to about 1.1 µM and inactive = higher. Residues, ends and D or L forms follow the SMILES beside them. *: point of attachment. Boc = CC(C)(C)OC(=O)*; OBn = c1ccc(CO*)cc1
# Columns and labels:
# Test in all cases: growth of human tumour cells (NCI), 48 h
# MOLT-4 = test system: MOLT-4
# SK-MEL-2 = test system: SK-MEL-2
# SNB-19 = test system: SNB-19
# IGROV-1 = test system: IGROV-1
# K562 = test system: K562
# M14 = test system: M14
# SW-620 = test system: SW-620
# LOX IMVI = test system: LOX IMVI
# SNB-75 = test system: SNB-75
# 786-0 = test system: 786-0
# MCF7 = test system: MCF7
# U-251 = test system: U-251
# HCC 2998 = test system: HCC 2998
# DU-145 = test system: DU-145
# MDA-MB-231 = test system: MDA-MB-231
# ACHN = test system: ACHN
# OVCAR-8 = test system: OVCAR-8
# SF-539 = test system: SF-539
# SF-295 = test system: SF-295
# OVCAR-3 = test system: OVCAR-3
SMILES,GI50 (MOLT-4),GI50 (SK-MEL-2),GI50 (SNB-19),GI50 (IGROV-1),GI50 (K562),GI50 (M14),GI50 (SW-620),GI50 (LOX IMVI),GI50 (SNB-75),GI50 (786-0),GI50 (MCF7),GI50 (U-251),GI50 (HCC 2998),GI50 (DU-145),GI50 (MDA-MB-231),GI50 (ACHN),GI50 (OVCAR-8),GI50 (SF-539),GI50 (SF-295),GI50 (OVCAR-3)
CCSC1=C(C#N)C2(CCCCC2)C2=C(O)CC(C)(C)CC2=N1,> 100 µM (inactive),54.8 µM (inactive),25.2 µM (inactive),26.5 µM (inactive),> 100 µM (inactive),> 100 µM (inactive),> 100 µM (inactive),> 100 µM (inactive),21.9 µM (inactive),31.8 µM (inactive),48.3 µM (inactive),29.9 µM (inactive),1.01 µM (active),25.5 µM (inactive),45.3 µM (inactive),24.7 µM (inactive),36.5 µM (inactive),51.8 µM (inactive),–,–
O=C1/C(=C/c2ccccc2)CN(C(=O)CCN2CCOCC2)C/C1=C\c1ccccc1,2.58 µM (inactive),2.55 µM (inactive),5.45 µM (inactive),6.04 µM (inactive),0.388 µM (active),2.33 µM (inactive),0.459 µM (active),0.897 µM (active),7.18 µM (inactive),1.96 µM (inactive),1.95 µM (inactive),1.79 µM (inactive),1.87 µM (inactive),16 µM (inactive),3.47 µM (inactive),3.49 µM (inactive),2.99 µM (inactive),2.06 µM (inactive),2.42 µM (inactive),3.91 µM (inactive)
N=C(N)N/N=C/c1c(-c2ccc([N+](=O)[O-])cc2)nc2sccn12,1.53 µM (inactive),1.76 µM (inactive),1.38 µM (inactive),8.63 µM (inactive),0.973 µM (active),1.91 µM (inactive),0.706 µM (active),1.86 µM (inactive),1.8 µM (inactive),1.47 µM (inactive),1.42 µM (inactive),1.58 µM (inactive),1.43 µM (inactive),1.82 µM (inactive),1.68 µM (inactive),2.64 µM (inactive),2.12 µM (inactive),1.77 µM (inactive),1.39 µM (inactive),1.37 µM (inactive)
CCCCCCCC1c2cc3nc(cc4[nH]c(cc5nc(cc([nH]2)[C@@]1(C)CC(=O)N(C)C)C(C)=C5CCC(=O)O)c(CCC(=O)O)c4C)C=C3C (stereo partly specified),–,18.8 µM (inactive),20.6 µM (inactive),21 µM (inactive),21.8 µM (inactive),14.7 µM (inactive),42.8 µM (inactive),17.6 µM (inactive),18.7 µM (inactive),29.5 µM (inactive),32.1 µM (inactive),18.9 µM (inactive),20 µM (inactive),21.4 µM (inactive),17 µM (inactive),18.5 µM (inactive),–,18.9 µM (inactive),18.9 µM (inactive),17.5 µM (inactive)
COC(=O)C1=NN2c3ccccc3CN([C@@H](C)c3ccccc3)C(=O)[C@@H]2[C@H]1c1ccccc1,5.66 µM (inactive),> 100 µM (inactive),> 100 µM (inactive),–,13.3 µM (inactive),> 100 µM (inactive),> 100 µM (inactive),> 100 µM (inactive),30.3 µM (inactive),> 100 µM (inactive),> 100 µM (inactive),> 100 µM (inactive),> 100 µM (inactive),> 100 µM (inactive),> 100 µM (inactive),> 100 µM (inactive),> 100 µM (inactive),> 100 µM (inactive),> 100 µM (inactive),> 100 µM (inactive)
O=C1c2ccccc2-c2nc(-c3cccnc3)cc3c2c1nc1ccccc13,23.6 µM (inactive),> 100 µM (inactive),> 100 µM (inactive),25.5 µM (inactive),> 100 µM (inactive),14.3 µM (inactive),> 100 µM (inactive),40.3 µM (inactive),> 100 µM (inactive),> 100 µM (inactive),> 100 µM (inactive),> 100 µM (inactive),> 100 µM (inactive),> 100 µM (inactive),> 100 µM (inactive),> 100 µM (inactive),> 100 µM (inactive),> 100 µM (inactive),58.3 µM (inactive),11.6 µM (inactive)
COc1cc(C2c3cc4c(cc3OC(O)C2C)OCO4)cc(OC)c1O (stereo unspecified),4.45 µM (inactive),10.3 µM (inactive),11.6 µM (inactive),8.55 µM (inactive),3.04 µM (inactive),6.9 µM (inactive),4 µM (inactive),8.67 µM (inactive),3.29 µM (inactive),8.89 µM (inactive),4.4 µM (inactive),7.16 µM (inactive),10.9 µM (inactive),23.5 µM (inactive),10.1 µM (inactive),12.4 µM (inactive),16.6 µM (inactive),6.28 µM (inactive),3.92 µM (inactive),4.24 µM (inactive)
CCCCCCCCCCCNC=O,22.6 µM (inactive),24.8 µM (inactive),> 100 µM (inactive),84.7 µM (inactive),23.7 µM (inactive),63 µM (inactive),48.3 µM (inactive),51.9 µM (inactive),50.8 µM (inactive),> 100 µM (inactive),37.9 µM (inactive),25.9 µM (inactive),24.4 µM (inactive),84.7 µM (inactive),48.6 µM (inactive),40.5 µM (inactive),58.1 µM (inactive),> 100 µM (inactive),36.9 µM (inactive),35.4 µM (inactive)
O=C(NN1CCCCC1)c1cc2cc(CCl)ccc2oc1=O,22.2 µM (inactive),11.9 µM (inactive),23.6 µM (inactive),19.4 µM (inactive),16.7 µM (inactive),18.8 µM (inactive),23.1 µM (inactive),18.5 µM (inactive),18.6 µM (inactive),16.5 µM (inactive),38.7 µM (inactive),16.9 µM (inactive),13.9 µM (inactive),29.4 µM (inactive),20.6 µM (inactive),44.5 µM (inactive),22.1 µM (inactive),27.4 µM (inactive),20.1 µM (inactive),20.4 µM (inactive)
CN1CCN(c2ccc3[nH]c(-c4ccc5[nH]c(-c6ccc(N(C)CCCl)cc6)nc5c4)nc3c2)CC1,0.0127 µM (active),0.22 µM (active),0.0538 µM (active),0.0382 µM (active),0.191 µM (active),1.08 µM (active),0.14 µM (active),0.0311 µM (active),0.152 µM (active),0.13 µM (active),< 0.01 µM (active),0.0429 µM (active),0.461 µM (active),0.183 µM (active),9.64 µM (inactive),0.942 µM (active),0.247 µM (active),0.109 µM (active),1.76 µM (inactive),–
C=C(CN(C)C)C(=O)c1ccccc1[N+](=O)[O-],–,18 µM (inactive),> 56.4 µM (inactive),22.2 µM (inactive),3.39 µM (inactive),15.5 µM (inactive),11.3 µM (inactive),7.94 µM (inactive),34.8 µM (inactive),12.2 µM (inactive),14.3 µM (inactive),32.2 µM (inactive),29.9 µM (inactive),23.6 µM (inactive),18.2 µM (inactive),16.1 µM (inactive),20.2 µM (inactive),39.7 µM (inactive),32.8 µM (inactive),18.9 µM (inactive)
O=[N+]([O-])c1cc2oc(COc3ccccc3)nc2cc1Cl,22.2 µM (inactive),22.1 µM (inactive),38.8 µM (inactive),19.5 µM (inactive),40 µM (inactive),19.5 µM (inactive),43.2 µM (inactive),16.7 µM (inactive),18.7 µM (inactive),33.1 µM (inactive),23.8 µM (inactive),22.8 µM (inactive),20 µM (inactive),32.3 µM (inactive),30.5 µM (inactive),48.3 µM (inactive),35.2 µM (inactive),19.1 µM (inactive),17.4 µM (inactive),17.9 µM (inactive)
CC(C)C(NC(=O)CNC(=O)C1CCCN1C(=O)C(NC(=O)OC(C)(C)C)C(C)C)C(=O)NCC(=O)OCc1ccccc1 (stereo unspecified) (Boc-VPGVG-OBn; configuration not given here),> 100 µM (inactive),> 100 µM (inactive),> 100 µM (inactive),> 100 µM (inactive) and 94.6 µM (inactive),61.4 µM (inactive),> 100 µM (inactive),> 100 µM (inactive),> 100 µM (inactive),–,> 100 µM (inactive),> 100 µM (inactive),> 100 µM (inactive),> 100 µM (inactive),> 100 µM (inactive),> 100 µM (inactive),> 100 µM (inactive),> 100 µM (inactive),> 100 µM (inactive),> 100 µM (inactive),> 100 µM (inactive)
O=c1ccc2ccc(O)cc2o1 [UMBELLIFERONE],> 100 µM (inactive),> 100 µM (inactive),> 100 µM (inactive),> 100 µM (inactive),–,> 100 µM (inactive),> 100 µM (inactive),> 100 µM (inactive),> 100 µM (inactive),> 100 µM (inactive),> 100 µM (inactive),> 100 µM (inactive),88.7 µM (inactive),> 100 µM (inactive),> 100 µM (inactive),> 100 µM (inactive),> 100 µM (inactive),> 100 µM (inactive),> 100 µM (inactive),> 100 µM (inactive)
